Source: patent US8324390B2, “Tetrazole-substituted anthranilamides as pesticides” (Bayer CropScience AG, priority 2008, dated 2012)
Like-named read-outs stand apart in the source and are kept apart here.

Tests used:
[1] = log P determination by HPLC (EEC Directive 79/831 Annex V.A8); format: physicochemical
Experimental: The measurements were carried out using an Agilent 1100 LC system with a 50*4.6 Zorbax Eclipse C18 1.8 μm column (oven temperature 55° C., flow rate 2.0 ml/min).
The following mobile phases were used:
Mobile phase A: acetonitrile+1000 μl of formic acid/l
Mobile phase B: Millipore water+900 μl of formic acid/l

[2] = test system: caterpillars of the armyworm (Spodoptera frugiperda); experiment: Spodoptera frugiperda test (SPODFR spray treatment); format: in vivo; details: Spodoptera frugiperda, foliar, read-out: effect in % (caterpillars killed)
Source text: (§1) Solvent: 78.0 parts by weight of acetone

[3] = test system: green peach aphid (Myzus persicae); experiment: Myzus test (MYZUPE spray treatment); format: in vivo; details: Myzus persicae, foliar, read-out: effect in % (aphids killed)
Source text: Solvent: 78 parts by weight of acetone
as §1

[4] = test system: larvae of the mustard beetle (Phaedon cochleariae); experiment: Phaedon test (PHAECO spray treatment); details: Phaedon cochleariae, in Brassica rapa, foliar, read-out: effect in % (beetle larvae killed)
[5] = reversed-phase HPLC, Zorbax Eclipse C18 column, determined by HPLC according to EEC Directive 79/831 Annex V.A8, read-out: log P
[6] = application rate 100 g/ha, maize leaf discs
[7] = application rate 100 g/ha, Chinese cabbage leaf discs
[8] = reversed-phase HPLC, Zorbax Eclipse C18 column, by HPLC according to EEC Directive 79/831 Annex V.A8, read-out: log P

| chromatographic logP [1, 5] | chromatographic logP [1, 8] | SMILES | chromatographic logP ([1]; log P) | pest or weed control at 100 g/ha ([2]; in Zea mays) [%] | pest or weed control at 100 g/ha ([3]; in Brassica rapa) [%] | pest or weed control at 100 g/ha [4] [%] | pest or weed control at 100 g/ha [2, 6] [%] | pest or weed control at 100 g/ha [3, 7] [%] |
| --- | --- | --- | --- | --- | --- | --- | --- | --- |
|  |  | CNC(=O)c1cc(Cl)cc(C)c1NC(=O)c1cc(Cn2nnnc2C(F)(F)F)nn1-c1ncccc1Cl [Example 161] | 2.63 | ≥ 80 | ≥ 80 | ≥ 80 |  |  |
|  |  | Cc1cc(Cl)cc(C(=O)NC(C)(C)C)c1NC(=O)c1cc(Cn2nnnc2C(F)(F)C(F)(F)F)nn1-c1ncccc1Cl [Example 443] | 3.92 | ≥ 80 | ≥ 80 | ≥ 80 |  |  |
|  |  | Cc1cc(C#N)cc(C(=O)NC(C)(C)C)c1NC(=O)c1cc(Cn2nnnc2C(F)(F)F)nn1-c1ncccc1Cl [Example 160] | 3.05 | ≥ 80 | ≥ 80 | ≥ 80 |  |  |
|  |  | Cc1cc(C#N)cc(C(=O)NC(C)(C)C)c1NC(=O)c1cc(Cn2nnnc2C(F)F)nn1-c1ncccc1Cl [Example 464] | 2.59 | ≥ 80 | ≥ 80 | ≥ 80 |  |  |
| 2.66 |  | CCNC(=O)c1cc(C#N)cc(C)c1NC(=O)c1cc(Cn2nnnc2C(F)(F)F)nn1-c1ncccc1Br [Example 478] |  |  |  | ≥ 80 | ≥ 80 | ≥ 80 |
|  |  | CC(C)(C)NC(=O)c1cc(Cl)cc(Cl)c1NC(=O)c1cc(Cn2nnnc2C(F)(F)F)nn1-c1ncccc1Cl [Example 177] | 3.43 | ≥ 80 | ≥ 80 | ≥ 80 |  |  |
| 3.2 |  | Cc1cc(C#N)cc(C(=O)NC(C)(C)C)c1NC(=O)c1cc(Cn2nnc(C(F)(F)F)n2)nn1-c1ncccc1F [Example 407] |  |  |  | ≥ 80 | ≥ 80 | ≥ 80 |
| 3.78 |  | Cc1cc(C#N)cc(C(=O)NC(C)(C)C)c1NC(=O)c1cc(Cn2nnc(C(F)(F)C(F)(F)F)n2)nn1-c1ncccc1Br [Example 425] |  |  |  | ≥ 80 | ≥ 80 | ≥ 80 |
|  |  | CNC(=O)c1cc(C#N)cc(C)c1NC(=O)c1cc(C(C)n2nnc(C(F)(F)F)n2)nn1-c1ncccc1Cl (stereo not shown) [Example 542] | 2.86 | ≥ 80 | ≥ 80 | ≥ 80 |  |  |
|  | 2.95 | Cc1cc(I)cc(C(N)=O)c1NC(=O)c1cc(Cn2nnc(C(F)(F)F)n2)nn1-c1ncccc1Br [Example 351] |  |  |  | ≥ 80 | ≥ 80 | ≥ 80 |
|  |  | Cc1cc(Cl)cc(C(N)=O)c1NC(=O)c1cc(Cn2nnc(C(F)(C(F)(F)F)C(F)(F)F)n2)nn1-c1ncccc1Cl [Example 360] | 3.46 | ≥ 80 | ≥ 80 | ≥ 80 |  |  |
|  |  | Cc1cc(I)cc(C(=O)NCC#N)c1NC(=O)c1cc(Cn2nnc(C(F)(F)F)n2)nn1-c1ncccc1Cl [Example 70] | 3.14 | ≥ 80 | ≥ 80 | ≥ 80 |  |  |
| 3.58 |  | Cc1cc(C#N)cc(C(=O)NC(C)(C)C)c1NC(=O)c1cc(Cn2nnnc2C(F)(F)F)nn1-c1ccccc1C(F)(F)F [Example 488] |  |  |  | ≥ 80 | ≥ 80 | ≥ 80 |
|  |  | CNC(=O)c1cc(C#N)cc(C)c1NC(=O)c1cc(Cn2nnnc2C(F)(F)C(F)(F)F)nn1-c1ncccc1Cl [Example 444] | 2.73 | ≥ 80 | ≥ 80 | ≥ 80 |  |  |
|  |  | CNC(=O)c1cc(Cl)cc(C)c1NC(=O)c1cc(Cn2nnnc2C(F)F)nn1-c1ncccc1Cl [Example 470] | 2.26 | ≥ 80 | ≥ 80 | ≥ 80 |  |  |
| 3.43 |  | CNC(=O)c1cc(C#N)cc(C)c1NC(=O)c1cc(Cn2nnc(C(F)(F)C(F)(F)F)n2)nn1-c1ccccc1Cl [Example 430] |  |  |  | ≥ 80 | ≥ 80 | ≥ 80 |
|  | 3.36 | CCNC(=O)c1cc(C#N)cc(C)c1NC(=O)c1cc(Cn2nnc(C(F)(F)F)n2)nn1-c1ccccc1Cl [Example 342] |  |  |  | ≥ 80 | ≥ 80 | ≥ 80 |

| chromatographic logP [1, 5] | chromatographic logP [1, 8] | SMILES | chromatographic logP ([1]; log P) | pest or weed control at 100 g/ha ([2]; in Zea mays) [%] | pest or weed control at 100 g/ha ([3]; in Brassica rapa) [%] | pest or weed control at 100 g/ha [4] [%] | pest or weed control at 100 g/ha [2, 6] [%] | pest or weed control at 100 g/ha [3, 7] [%] |
| --- | --- | --- | --- | --- | --- | --- | --- | --- |
|  |  | CNC(=O)c1cc(Cl)cc(Cl)c1NC(=O)c1cc(Cn2nnnc2C(F)F)nn1-c1ncccc1Cl [Example 476] | 2.22 | ≥ 80 | ≥ 80 | ≥ 80 |  |  |
|  |  | Cc1cc(C#N)cc(C(=O)NC(C2CC2)C2CC2)c1NC(=O)c1cc(Cn2nnnc2C(F)(F)F)nn1-c1ncccc1Cl [Example 196] | 3.28 | ≥ 80 | ≥ 80 | ≥ 80 |  |  |
| 3.29 |  | Cc1cc(Cl)cc(C(=O)NC2CC2)c1NC(=O)c1cc(Cn2nnnc2C(F)(F)C(F)(F)F)nn1-c1ncccc1Br [Example 515] |  |  |  | ≥ 80 | ≥ 80 | ≥ 80 |
| 3.02 |  | CCNC(=O)c1cc(Br)cc(C)c1NC(=O)c1cc(Cn2nnnc2C(F)(F)F)nn1-c1ncccc1Br [Example 505] |  |  |  | ≥ 80 | ≥ 80 | ≥ 80 |
|  | 3.15 | CNC(=O)c1cc(C#N)cc(C)c1NC(=O)c1cc(Cn2nnc(C(F)(F)F)n2)nn1-c1ccccc1Br [Example 349] |  |  |  | ≥ 80 | ≥ 80 | ≥ 80 |
| 2.91 |  | CNC(=O)c1cc(I)cc(C)c1NC(=O)c1cc(Cn2nnnc2C(F)(F)F)nn1-c1ncccc1Br [Example 506] |  |  |  | ≥ 80 | ≥ 80 | ≥ 80 |
|  |  | Cc1cc(Br)cc(C(=O)NCC#N)c1NC(=O)c1cc(Cn2nnc(C(F)(F)F)n2)nn1-c1ncccc1Cl [Example 52] | 3.02 | ≥ 80 | ≥ 80 | ≥ 80 |  |  |
|  |  | Cc1cc(F)cc(C(=O)NC(C)(C)C)c1NC(=O)c1cc(Cn2nnc(C(F)F)n2)nn1-c1ncccc1Cl [Example 308] | 2.9 | ≥ 80 | ≥ 80 | ≥ 80 |  |  |
|  | 3.43 | Cc1cc(C#N)cc(C(=O)NC(C)(C)C)c1NC(=O)c1cc(Cn2nnc(C(F)(F)F)n2)nn1-c1ncccc1Br [Example 332] |  |  |  | ≥ 80 | ≥ 80 | ≥ 80 |
|  |  | Cc1cc(Cl)cc(C(=O)NC(C)C2CC2)c1NC(=O)c1cc(Cn2nnc(C(F)(F)F)n2)nn1-c1ncccc1Cl (stereo not shown) [Example 30] | 3.79 | ≥ 80 | ≥ 80 | ≥ 80 |  |  |
|  |  | Cc1cc(Br)cc(C(=O)NC(C)(C)C)c1NC(=O)c1cc(Cn2nnnc2C(F)(F)F)nn1-c1ncccc1Cl [Example 182] | 3.62 | ≥ 80 | ≥ 80 | ≥ 80 |  |  |
|  |  | CNC(=O)c1cc(C#N)cc(C)c1NC(=O)c1cc(Cn2nnc(C(F)(C(F)(F)F)C(F)(F)F)n2)nn1-c1ncccc1Cl [Example 367] | 3.35 | ≥ 80 | ≥ 80 | ≥ 80 |  |  |
|  |  | Cc1cc(Br)cc(C(=O)NC2CC2)c1NC(=O)c1cc(Cn2nnc(C(F)F)n2)nn1-c1ncccc1Cl [Example 298] | 2.85 | ≥ 80 | ≥ 80 | ≥ 80 |  |  |
|  |  | Cc1cc(I)cc(C(=O)NC2CC2)c1NC(=O)c1cc(Cn2nnnc2C(F)(F)F)nn1-c1ncccc1Cl [Example 174] | 3.12 | ≥ 80 | ≥ 80 | ≥ 80 |  |  |
| 3.93 |  | Cc1cc(Cl)cc(C(=O)NC(C)C)c1NC(=O)c1cc(Cn2nnc(C(F)(F)F)n2)nn1-c1ccccc1Cl [Example 427] |  |  |  | ≥ 80 | ≥ 80 | ≥ 80 |
|  |  | CSC[C@H](C)NC(=O)c1cc(Cl)cc(C)c1NC(=O)c1cc(Cn2nnc(C(F)(F)F)n2)nn1-c1ncccc1Cl [Example 41] | 3.68 | ≥ 80 | ≥ 80 | ≥ 80 |  |  |
|  |  | Cc1cc(C#N)cc(C(N)=O)c1NC(=O)c1cc(Cn2nnc(C(F)(C(F)(F)F)C(F)(F)F)n2)nn1-c1ncccc1Cl [Example 372] | 3.13 | ≥ 80 | ≥ 80 | ≥ 80 |  |  |
